EP1151753B1, “PREVENTIVE AND THERAPEUTIC AGENTS FOR ARTERIOSCLEROSIS” (CCI CORPORATION, priority 1999, dated 2000)

Columns and labels:
[1] = test system: ICR mice; assay: Test for acute toxicity; assay type: in vivo; conditions: 500 mg/kg orally, suspension in aqueous 5% gum arabic solution, visual inspection for one week
Experimental: The agent of this invention for preventing and curing arteriosclerosis was tested for acute toxicity with a view to confirming the safety. Groups each formed of three ICR mice aged 4 to 5 weeks were used for the test. The same TMG as mentioned above was suspended as the chromanol glucoside in an aqueous 5% gum arabic solution. The suspension was orally administered to the mice at a dosage of 500 mg/kg as reduced to TMG and the mice were kept under visual inspection for one week. To the control group, the aqueous 5% gum arabic solution was orally administered at a rate of 0.3 ml.

[2] = Lipoprotein analysis, cholesterol-loaded rabbit model; assay type: in vivo, New Zealand White (NZW) type rabbits; conditions: cholesterol-loaded NZW rabbits
Text: (§1) In the test, female and male New Zealand White (NZW) type rabbits (SPF: Kitayama Labels K.K.) which were seven weeks old at the time of arrival at the laboratory were subjected to quarantine and two weeks' domestication and visually inspected as to the general condition and, after the absence of abnormality was confirmed, put to use. The body weights at the time of starting administration (at the age of nine weeks) were in the range of 1.8 - 2.2 kg in the case of male rabbits and in the range of 1.6 - 2.0 kg in the case of female rabbits. Throughout the entire duration of the test, the animals were raised as accommodated one each in hanger cages of aluminum installed on a stainless steel rack inside a clean feeding chamber set at a temperature in the range of 20 - 26°, a relative humidity in the range of 40 - 70%, a number of ventilations in the range of 10 - 20 turns/hour, and an illumination time within the range of 12 hours (7.00 - 19:00). They were fed on a commercially available radioactively sterilized solid feed (a product containing 1% of cholesterol, made by Oriental Kobo K.K. and sold under the product code of "RC4") and they were left freely drinking the tap water delivered by an automatic water supplying device.
The dosage of TMG was set at 800 mg/head/day. The TMG was solved in reagent grade ethanol. The produced solution was sprayed on the 1% cholesterol-containing feed and the wet feed was left drying in the air. A mixed feed was prepared so as to contain 800 mg of TMG per 100 g of the feed. The mixed feed was given to the rabbits every morning at a rate of 100 g/day per head for 12 weeks for the sake of attaining oral consumption of the TMG. The feed for the control group was obtained by spraying ethanol alone on a feed containing 1% cholesterol and air-drying the wet feed. It was given to the rabbits of the control group at a rate of 100 g/day per heat for 12 weeks. […]
About 10 ml of blood was taken from the heart or the auricular artery of a rabbit experiencing 12 hours' fast prior to the start of the administration and on the 6th and 12th weeks of administration. […] The blood serum was ultracentrifuged by Hatch and Lees method (Hatch, F. T., and Lees, R. S. (1968) Advan, Lipid Res. 6, 1-68) using a centrifuge (the rotor; Beckman 70.1 Ti) made by Beckman and sold under the product code of "L-70") to separate low specific gravity lipoprotein (1.006 < d < 1.063), with the cholesterol amount of the LDL fraction determined by the cholesterol oxidase DASO method and the amount of HDL-cholesterol determined by subjecting the blood serum to the phospho-tungstic acid magnesium salt precipitation method. The amount of TMG was determined by the HPLC method.

[3] = Biochemical test of blood and measurement of body weight, cholesterol-loaded rabbit model; assay type: in vivo, New Zealand White (NZW) type rabbits; conditions: cholesterol-loaded NZW rabbits
Experimental: Now, the pharmacogenic effect of the agent of this invention for preventing and curing arteriosclerosis will be described specifically below with reference to a pharmacological test using high cholesterol-loaded rabbits and the WHHL (Watanabe heritable hyperlipidemic) rabbits forming a model of the familial high-cholesterol blood disease. The data were wholly reported by the average ± standard error (SE) and the significant differences among separate groups were determined by the Student's t-test. The risk factor, p < 0.05, was rated as forming a significance of difference.
as §1
The dosage of TMG was set at 800 mg/head/day. The TMG was solved in reagent grade ethanol. The produced solution was sprayed on the 1% cholesterol-containing feed and the wet feed was left drying in the air. A mixed feed was prepared so as to contain 800 mg of TMG per 100 g of the feed. The mixed feed was given to the rabbits every morning at a rate of 100 g/day per head for 12 weeks for the sake of attaining oral consumption of the TMG. The feed for the control group was obtained by spraying ethanol alone on a feed containing 1% cholesterol and air-drying the wet feed. It was given to the rabbits of the control group at a rate of 100 g/day per heat for 12 weeks.
A control group and a TMG-administration group were formed; the control group of a total of six heads composed of three males and three females and the TMG-administration group of a total of eight heads composed of four males and four females. These animals were apportioned to the two groups randomly and nevertheless elaborately so as to avoid confusion of the children of one brood in either group to the fullest possible extent and equalize as much as permissible the average body weights and the average total cholesterol numbers in blood serum of the two groups with the body weights and the total cholesterol numbers found at the time of completion of the domestication.
About 6 ml of blood was taken from the heart or the auricular artery of a rabbit experiencing 12 hours' fast prior to the start of the administration, within 4 and 8 weeks of undergoing administration, and on the final day of administration (12th week). The blood was centrifuged to separate blood serum and the blood serum was analyzed for the items shown in Table 1 by the use of an automatic analyzer (made by Hitachi. Ltd. And sold under the product code of "736-20"). The body weight of each rabbit was measured at the rate of once a week throughout the entire duration of the administration.

[4] = test system: cholesterol-loaded rabbits; assay: Evaluation of morbid alteration of aorta (Sudan dyeing), cholesterol-loaded rabbit model; assay type: in vivo, New Zealand White (NZW) type rabbits; conditions: cholesterol-loaded NZW rabbits
Text: as §1
The dosage of TMG was set at 800 mg/head/day. The TMG was solved in reagent grade ethanol. […]

[5] = TMG 800 mg/head/day for 12 weeks
[6] = TMG 800 mg/head/day in feed, 12th week of administration, average ± SE
[7] = blood serum, TMG 800 mg/head/day in feed, 12th week of administration, average ± SE

## Cc1c(C)c2c(c(C)c1O)CCC(C)(C[C@H]1O[C@H](CO)[C@@H](O)[C@H](O)[C@H]1O)O2 (stereo partly drawn) [TMG, 2-(α-D-glucopyranosyl)methyl-2,5,7,8-tetramethyl chroman-6-ol]
[1]
  fatality: None of the mice
[2]; amount of TMG in LDL fraction by HPLC, TMG 800 mg/head/day in feed, 12th week of administration
  LDL-TMG: not detected
[2]; [5]
  activity of lowering the HDL-cholesterol: no activity
[2]; [6]
  HDL-CHO: 33 ± 5 mg/dL
  LDL-CHO: 620 ± 34 mg/dL
[3]; [7]
  ALB: 2.3 ± 0.1 g/dL
  ALP: 174 ± 15 mU/ml
  ChE: 0.35 ± 0.06 U/ml
  GOT: 19.7±2.2 mU/ml
  GPT: 72.9 ± 9.1 mU/ml
  LDH: 147 ± 31 mU/ml
  PL: 851 ± 42 mg/dL
  T-CHO: 2628 ± 148 mg/dL
  TG: 250 ± 76 mg/dL
[3]; [5]
  activity of lowering the blood serum lipids (T-CHO, TG, PL, LDL-CHO): no activity
  biochemical test of blood: no sign of abnormality
[3]; [6]
  Body weight: 2.89 ± 0.11 kg
[3]; TMG 800 mg/head/day, versus control group
  rise of the GOT, an index of the development of hepatopathy: significantly repressing the injury
[4]; area occupied by deposited lipid in whole area of aorta, TMG 800 mg/head/day in feed, 12th week, control 79.7 ± 3.2, p < 0.01
  Surface involvement (%): 50.2 ± 5.7 %
[4]; [5]
  occurrence of the atherosclerosis: significantly repressing
